According to US20130331353A1, “CELL-PERMEABLE VARIANTS OF TREHALOSE AND METHODS FOR THE PROTECTION OF LIVING CELLS” (UNION COLLEGE, priority 2012, published 2013):

Test system: Jurkat cells
Assay: Survival of Jurkat cells after cryopreservation (Trypan blue staining, automated cell counter)
Format: cell-based, human
Settings: Jurkat cells incubated 24 hours (50-200 μM Compound 2, with or without 200 mM Tre), slowly frozen at −80° C., thawed quickly; FIG. 2
Method: Fully acetylated Tre (Compound 2, FIG. 1) has been synthesized, and incubated with Jurkat cells, a human T-cell line.
In accordance with a method of the present invention, mammalian cells are incubated with a solution containing cell-permeable variants of Tre. Preferably, the incubation time is at least 24 hours, more preferably, 24 to 96 hours, and most preferably about 48 hours. The cells are then frozen, preferably to about −80° C. or colder and thawed. Suitable freezing techniques include freezing the cells slowly, using for example a cryo 1° C. freezing container (“Mr. Frosty”), and freezing the cells quickly, for example, by plunging them into liquid nitrogen. Preferably, the frozen cells are thawed quickly, but they may also be thawed slowly. The % cell survival is measured, preferably using Trypan blue staining and an automated cell counter. […]
Jurkat cells were incubated for 24 hours with each of the following solutions: 0 mM Tre, 200 mM Tre, 50 μM Compound 2, 100 μM Compound 2, 200 μM Compound 2, 50 μM Compound 2+200 mM Tre, 100 μM Compound 2+200 mM Tre, and 200 μM Compound 2+200 mM Tre. The cells were then slowly frozen at −80° C. using a cryo 1° C. freezing container (“Mr. Frosty”) and thawed quickly. % cell survival was measured using Trypan blue staining and automated cell counter.

For `CC(=O)OCC1OC(OC2OC(COC(C)=O)C(OC(C)=O)C(OC(C)=O)C2OC(C)=O)C(OC(C)=O)C(OC(C)=O)C1OC(C)=O` (stereo not shown) [Compound 2, fully acetylated trehalose], which “survival after freezing and thawing” value is on record?
The value was “improved survival”.
